Common to all, as to format: cell-based, human
The test system of one experiment is p38 MAPK. The experiment is described as follows: Phosphorylation of p38 MAPK in monocytes, Western blot. The conditions noted are these: LPS-stimulated monocytes, 1 hour; FIG. 5B. The procedure:
(§1) For detection of the levels of activated ERK1/2 and p38 MAPKs monocytes were cultured in DMEM at 5×10^6/ml in suspension. Ten to 60 minutes after the addition of reagents, the cells were pelleted and lysed with SDS loading buffer (prepared as described above). The supernatants were loaded onto 12% Tris-glycine gels. The blots were then incubated overnight with mouse anti-human antibodies against the phosphorylated forms of ERK1/2 and p38 and with rabbit anti-human antibodies against total ERK1/2 and p38 as a measure of equal loading of the gels.
(§2) Western blots for MMP-1, MAPKs and COX-2 were incubated overnight with primary antibodies, washed and analyzed by the addition of Alexa Fluor 680 goat anti-rabbit or Alexa Fluor 750 goat anti-mouse antibodies (Molecular Probes® Inc., Eugene, Oreg.) and the infrared fluorescence detected with the Odyssey infrared imaging system (LI-COR, Lincoln, Nebr.). Densitometry analysis of the bands on the Western blots was determined with the LI-COR software analysis program or the ImageQuant software analysis program (Amersham Biosciences, Piscataway, N.J.).
(In general: In western blotting, separated proteins are transferred to a membrane and probed.)

Another experiment deals with MMP-1 mRNA in monocytes. The experiment in a line: MMP-1 mRNA in monocytes, semiquantitative RT-PCR. The conditions noted are these: FIG. 2C. The protocol:
Plasmin activity assay. Plasmin activity was determined with the SPECTROZYME PL kit (American Diagnostica Inc., Stamford, Conn.) which utilizes the chromogenic substrate H-D-norleucyl-hexahydrotyrosol-lysine-para-nitroanilide diacetate. For detection of cell-associated plasmin activity, monocytes were cultured at 1×10^6/well in Hanks Balanced Solution containing calcium and magnesium (Hyclone, Logan, Utah) with the plasmin substrate. Kinetic absorbance readings were measured at 405 nm. RT-PCR. Total cellular RNA was extracted with the RNeasy Mini Kit (QIAGEN® Inc., Valencia, Calif.) 8 hours after stimulation of monocytes with LPS. Transcript levels of MMP-1 were determined using semiquantitative reverse transcriptase-polymerase chain reaction (RT-PCR) with GADPH as an internal control. […] The amplified DNA was separated by 1.7% agarose gel electrophoresis, stained with SYTO 60 red fluorescent nucleic acid stain (Molecular Probes®, Eugene, Oreg.), and the intensity of the stained bands was analyzed with an infrared imaging system. […] FITC-conjugated BSA, plasmin (2.5 μg in 10 μl) or anti-human antibodies (1-2.5 μg/10 μl) then were added, respectively, incubated for 30 min and washed and analyzed by the FACSCalibur system (Becton Dickinson Biosciences, Franklin Lakes, N.J.). […] Flow cytometry results were analyzed by CELLQuest software (Becton Dickinson Biosciences, Franklin Lakes, N.J.). […]

For the next experiment, the system named is PGE2. The experiment in a line: PGE2 in monocyte culture supernatants, ELISA. The conditions noted are these: LPS-stimulated monocytes, 24 hours; FIG. 4B. The procedure:
FIGS. 4A-4C illustrate that stimulation of MMP-1 by HMW-uPA and plasmin is mediated in part by PGE2. FIG. 4A is a digital image depicting cyclooxygenase-2 (COX-2) protein levels detected in monocyte cultures determined by Western blot analysis in the presence of HMW-uPA (30 nM) or plasmin (360 nM) in the absence or presence of LPS (25 ng/ml). β-actin protein levels were detected to serve as an indicator for equal sample loading. FIG. 4B is a bar graph illustrating media levels of PGE2 measured by ELISA at 24 hours. FIG. 4C is a digital image illustrating MMP-1 protein levels detected by Western blot analysis in monocyte cultures following incubation with indomethacin for 30 minutes prior to the addition of LPS, HMW-uPA, plasmin or PGE2 (1 μM).

The subject of a further experiment is ERK1/2. The experiment in a line: Phosphorylation of ERK1/2 in monocytes, Western blot. The conditions noted are these: LPS-stimulated monocytes, 1 hour; FIG. 5B. The procedure: as §1, §2

From US20090142330A1, “Use of inactive-plasmin to treat chronic inflammatory disease and tumors” (The Government of the United States of America as …, priority 2007, published 2009) come the findings set out here.

Turning to plasmin, the “phosphorylation of p38” value with p38 MAPK was “induced increases”. Moreover, the “MMP-1 mRNA level” value in the experiment with MMP-1 mRNA in monocytes (LPS-stimulated monocytes, 8 hours) is reported as “dose-dependent increase”. Further, the “induction of MMP-1 mRNA” value with MMP-1 mRNA in monocytes (control (unstimulated) monocytes) is on record as “did not induce MMP-1”. In the experiment on PGE2, the “PGE2 levels in monocyte culture supernatants” value is “increased PGE2 levels”. Also, the “phosphorylation of ERK1/2” value with ERK1/2 was “induced increases”.
